Data on 1 compound can be found in US20130296370A1, “COMPOSITION COMPRISING A PHOTOACTIVATABLE LARVICIDE” (UNIVERSITA DEGLI STUDI DI PADOVA, priority 2010, published 2013).

The nature of data set [1]: Adsorption and release of C14 on powdered food pellet (PFP). It counts as physicochemical. The note with it: 70 mg PFP in 500 ml 5 μM C14, 28° C., dark. Here is the method:
C14 appeared to remain stably associated with food particles. Specifically, the C14 concentrations in the incubation buffers ranged from 0.01 μM (pH 7.0) to 0.024 μM (pH 9.5), corresponding to a release of just 2.14%-5.15% of the initial C14 amount.
A standard food pellet for laboratory rodents, namely 4RF18 GLP (Mucedola Srl, Italy), commonly used as mosquito larval food, was crushed using an electric blender and then sieved (mesh diameter 500 μm) to obtain powdered food pellet (PFP) with final particle diameter of 5-500 μm diameter. C14-PFP complexes were obtained by incubating PFP in C14 solutions. The loading of C14 on PFP and the dynamics of its release from the C14-PFP complexes in water were analysed by spectrophotometric quantification. Specifically, to evaluate the C14 binding rate on PFP, 70 mg of PFP were incubated in 500 ml of a 5 μM solution of C14, at 28° C. for 5 days, in the dark. The same C14 solution without PFP served as control. The amount of unbound porphyrin was then estimated by measuring the absorbance at 423 nm of the supernatant of aliquots of the solutions collected at various incubation times and centrifuged at 10,000 rpm for 10 minutes. […] The amount of porphyrin released in the media from the formulate complexes was measured as described above. […]

The subject of another data set is Aedes aegypti larvae. Kind of data set: C14 porphyrin toxicity in the light. The format is in vivo. The note with it: 5 μM C14. Here is the method: […] After the irradiation period, larvae were kept in the dark and larval mortality was monitored for 6 days. Arithmetic means of percentages of dead larvae. Error bars represent standard deviations (n=3 replicates of 50 larvae each).
(§1) Irradiation of mosquito larvae were performed by employing full spectrum visible light (400-800 nm) at a fluence rate of 1.0 to 4.0 mW/cm^2 using low-pressure mercury discharge fluorescent tubes TL-D Standard Colours (TL-D 58W/33-640 1SL, PHILIPS, EC). The intensity of the incident radiation was measured by an ILT1400A radiometer/photometer, equipped with a SED623/HNK15 multi-junction thermopile detector (International Light Technologies Inc., MA, USA).
(§2) All the experiments were carried out in a climatic chamber at 28±2° C. with a regulated photoperiod of 12 hours. Transparent plastic trays, containing 500 ml C14 solutions or spring water were employed. Typically, 5±1 days old, 3rd-early 4th instar Aedes aegypti larvae were used. All the experiments were replicated three times.
Fifty larvae were added to groups of trays containing 5 μM porphyrin C14 solution or spring water as a control. Trays were provided with PFP (wherein PFP means powdered food pellet (PFP) with final particle diameter of 5-500 μm diameter obtained by crushing a standard food pellet for laboratory rodents, namely 4RF18 GLP (Mucedola Srl, Italy) using an electric blender and then sieving at mesh diameter 500 μm) and incubated in the dark for 12 hours. […] After irradiation, the trays were returned in the dark, and larval mortality was assessed every 24 hours for the following 6 days. Larvae not moving or not showing a normally vigorous escaping response at probing were defined as dead or dying, respectively, and counted together. Pupae formed during the experiment were transferred to smaller trays containing spring water, within screened cages at normal colony photoperiod conditions, and monitored for mortality and adult emergence.

The subject of data set [2] is 3rd-4th instar Ae. aegypti larvae. Kind of data set: Larvicidal efficacy of C14 porphyrin (LC50). It counts as in vivo. The note with it: 6 mg PFP. The procedure:
as §1, §2
Mortality data were analyzed by ANOVA and LSD post-hoc tests using SPSS v. 11.0 (SPSS Inc.). LC50 values and relevant statistics were obtained by nonlinear regression of mortality data, using OriginPro v. 7.5 (OriginLab Corp.).
Trays containing C14 porphyrin solutions at 7 increasing concentrations (range 0.03-4.3 μM), or spring water as a control, were provided with 6 mg of PFP each (wherein PFP means powdered food pellet (PFP) with final particle diameter of 5-500 μm diameter obtained by crushing a standard food pellet for laboratory rodents, namely 4RF18 GLP (Mucedola Srl, Italy) using an electric blender and then sieving at mesh diameter 500 μm) and then incubated in the dark for 48 hours. Batches of 100 larvae, fasted for the previous 24 hours, were introduced into the trays at 8.00 pm (beginning of the 12 hour-long dark period in the climatic chamber). Larval mortality was evaluated on the next day at 9 am (after 1 hour irradiation), 2 pm (6 hours irradiation) and 8 pm (12 hours irradiation). An additional mortality evaluation was performed on the following day at 8.00 am, after a further overnight incubation. Larvae not moving or not showing a normally vigorous escaping response at probing were defined as dead or dying, respectively, and counted together. Pupae occasionally formed during the experiment, which never exceeded 10% of the total number of larvae, were discarded and excluded from the evaluation.
C14 solutions were incubated with 6 mg PFP at 28±2° C. in the dark for 48 hours. Larvae (3rd-4th instar, n=100, 3 replicates) were introduced 12 hours before the start of the irradiation (fluence rate: 1.0-4.0 mW/cm^2).

On to `CCCCCCCCCCCCCC[n+]1ccc(-c2c3nc(c(-c4cc[n+](C)cc4)c4ccc([nH]4)c(-c4cc[n+](C)cc4)c4nc(c(-c5cc[n+](C)cc5)c5ccc2[nH]5)C=C4)C=C3)cc1.Cc1ccc(S(=O)(=O)[O-])cc1.Cc1ccc(S(=O)(=O)[O-])cc1.Cc1ccc(S(=O)(=O)[O-])cc1.Cc1ccc(S(=O)(=O)[O-])cc1` [C14, meso-tri(N-methyl-pyridyl), mono(N-tetradecyl-pyridyl)porphine], for which the entries for the “C14 bound to the PFP particles” value in data set [1] (24 hours) and in data set [1] (5 days) were 82% and 92%, respectively. The larval mortality is 100% in the data set on Aedes aegypti larvae (6 hour-long light, count 24 hours later); 97.99%±0.05% in the data set with Aedes aegypti larvae (dark-incubated 8 hours, 6 hour-long light 1.0-4.0 mW/cm^2, within irradiation period); 92.1%±7.9% in the data set on Aedes aegypti larvae (irradiated one hour, thereafter kept in the dark, day 6). Also, the LC50 in data set [2] (12 light + 12 dark hours) stood at 110 nM; in data set [2] (1 hour of irradiation, 1.0-4.0 mW/cm^2) it was 460 nM; in data set [2] (6 hours of irradiation, 1.0-4.0 mW/cm^2), 250 nM; in data set [2] (12 hours of irradiation, 1.0-4.0 mW/cm^2), 220 nM.

One may read the LC50 as the concentration lethal to half of the exposed cells or organisms.
